The text below walks through data of article PMC10120551, “Novel Glu-based pyrazolo[3,4-d]pyrimidine analogues: design, synthesis and biological evaluation as DHFR and TS dual inhibitors” (Journal of Enzyme Inhibition and Medicinal Chemistry, 2023).

SMILES strings stand for the structures.

For assay [1], the system named is HSF (Normal human skin fibroblast) cells. Description: MTT cytotoxicity assay. It is filed as cell-based. The settings on record: HSF normal fibroblasts, 48 h, mean ± SD from triplicates. On the procedure: The results hinted that 6i elicited stronger cytotoxicity and higher selectivity for cancer than normal cells.
(§1) The MTT assay was carried out according to the procedure cited earlier. Briefly, in a 96-well plate, either cancer or normal cells were seeded (10^6 cells/cm^2; 100 µL/well) and incubated for 12 h at 37 °C and CO2 (5%), then serial dilutions of compound 6i were added and incubated for 48 h using DMSO control (0.5% V/V). MTT (3-(4,5-dimethylthiazoyl)-2,5-diphenyl-tetrazolium bromide; Cat. No. M-5655) 5 mg/mL was then added. After 4 h incubation, the formed MTT formazan crystals were solubilised by 10% Triton X-100 plus 0.1 N HCl in anhydrous isopropanol. The absorbance was read using a Bioline plate reader at λ570–630 nm[25–29]. The selectivity of 6i towards HSF cells was also determined as follows[30]^,[31]: SI=IC50HSF cells/IC50of cancer cells
(In general: Tetrazolium dyes change colour on reduction, which living cells bring about.)

Assay [2] deals with MCF-7 (Breast cancer). The assay is described as follows: MTT cytotoxicity assay. It is filed as cell-based, human. The settings on record: Homo sapiens, MCF7; MCF-7; MTT, 48 h; mean ± SD from triplicates. On the procedure: as §1
Assay [3] concerns OVCAR-3 (Ovarian Cancer). The assay is described as follows: MTT cytotoxicity assay. It is filed as cell-based, human. The settings on record: Homo sapiens, OVCAR-3, 48 h, OVCAR-3; MTT, 48 h; mean ± SD from triplicates. How it is done: as §1
In assay [4] the test system is PC-3 (Prostate cancer). The assay is described as follows: MTT cytotoxicity assay. It is filed as cell-based, human. The settings on record: Homo sapiens; PC-3; MTT, 48 h; mean ± SD from triplicates. On the procedure: as §1
In assay [5] the test system is full panel of 59 cancer cells. Description: NCI one-dose screen (SRB), full panel. As to conditions: mean over full panel of 59 cell lines, 10 µM single dose; for inhibition at 10 µM: Homo sapiens, read-out: MGI% (mean growth inhibition percentage). It is filed as cell-based, human. How it is done: The growth percentage (G%) and cell viability of the herein target compounds 6a–l, 7a,b, and 9a–c have been screened towards a full panel of 59 cancer cells at NCI’s Developmental Therapeutics Program (NCI-DTP, MD, USA)[21]. The submitted analogues were initially examined for preliminary in vitro anticancer activity using sulforhodamine B (SRB) assay at 10 µM as a single dose to evaluate cell growth and viability according to the procedure of Drug Evaluation Branch[22]^,[23].
Different types of tumours – colon, NSCLC, leukaemia, CNS, renal, breast, ovarian, melanoma, and prostate cancers – were investigated as a full panel of 59 cell lines, and the attained results are cited in Figures S1–S17 (see Supplementary Material) where the value recorded is the growth relative to that of both the negative control and zero-time number of cells in which both growth inhibition (GI%; 0–100%) and lethality (L%; 0–100%) percentages can be identified. The growth inhibition means percentages (MGI%) for the examined target analogues towards the different treated 59 cancer cells were presented in Figure 2.
The designed analogues were submitted to NCI-Chemotherapeutic Agents Repository (MD, USA) for screening on a panel of 59 cancer cell lines. All compounds were initially examined at 10 µM concentration (Single-Dose Screen), and then the most efficient analogue 6i was screened further at 0.01–100 µM (Five-Dose Screen). The screening procedures were performed according to NCI-Drug Evaluation Branch protocol using SRB protein assay, as described previously[21]^,[66]. The experimental procedures were detailed in the Supporting Information.

Regarding `CN(Cc1cnc2nc(N)nc(N)c2n1)c1ccc(C(=O)N[C@@H](CCC(=O)O)C(=O)O)cc1` [MTX, methotrexate, reference compound], the IC50 (as a rule, the concentration at which inhibition is half-maximal) turned out to be 13.7 ± 0.69 µM in assay [1], 0.58 ± 0.03 µM in assay [2], 6.31 ± 0.32 µM in assay [3] and 2.72 ± 0.14 µM in assay [4]. As for `CCOC(=O)CC[C@H](NC(=O)c1ccc(NC(=O)CSC2=NC(C)=C(C(=O)OCC)[C@@H](c3ccc(Cl)cc3)N2)cc1)C(=O)OCC` [Compound 9b], the inhibition (in general, the change of the read-out against control, counted positive when it falls) at 10 µM in assay [5] was 33.9%. For the compound `CCOC(=O)CC[C@H](NC(=O)c1ccc(NC(=O)Cn2cnc3c(c(SC)nn3-c3ccc(Br)cc3)c2=O)cc1)C(=O)OCC` [Compound 6k], in assay [5], the “MGI% (mean growth inhibition percentage)” value is “failed to demonstrate MGI%”. Take `CCOC(=O)CC[C@H](NC(=O)c1ccc(NC(=O)CSC2=NC(C)=C(C(=O)OCC)[C@@H](c3ccc(Br)cc3)N2)cc1)C(=O)OCC` [Compound 9c]: the inhibition at 10 µM in assay [5] was 36.9%.
